In ChEMBL document CHEMBL1201862, “PubChem BioAssay data set” (2004):
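Following 48 hours of exposure in 96-well plates, responses at five concentrations were used to interpolate endpoints linearly. GI50 = concentration required for 50% inhibition of growth.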 Activity calls are given as the source filed them. Cut-off read from the data, not from the text of the source: active = GI50 up to about 1.1 µM and inactive = higher.

Assays:
Test in all cases: growth of human tumour cells (NCI), 48 h
SNB-19 = tested on: SNB-19
SK-MEL-28 = tested on: SK-MEL-28
SF-295 = tested on: SF-295
HOP-92 = tested on: HOP-92
RXF 393 = tested on: RXF 393
U-251 = tested on: U-251
NCI-H226 = tested on: NCI-H226
M14 = tested on: M14
DLD-1 = tested on: DLD-1
NCI-H23 = tested on: NCI-H23
OVCAR-5 = tested on: OVCAR-5
MOLT-4 = tested on: MOLT-4
SW-620 = tested on: SW-620
SNB-75 = tested on: SNB-75

Measured: GI50

Cc1ccc(NC(=O)CCC(=O)C2CC(=O)CCC2=O)cc1C (stereo unspecified)
inactive: SNB-19 > 100 µM | SK-MEL-28 > 100 µM | SF-295 > 100 µM | HOP-92 76.4 µM | RXF 393 > 100 µM | U-251 > 100 µM | NCI-H226 > 100 µM | M14 > 100 µM | DLD-1 > 100 µM | NCI-H23 > 100 µM | OVCAR-5 > 100 µM | MOLT-4 > 100 µM | SW-620 > 100 µM

CN(/N=C/c1ccnc2ccccc12)c1c([N+](=O)[O-])cc([N+](=O)[O-])cc1[N+](=O)[O-]
inactive: SNB-19 > 100 µM | SK-MEL-28 60.5 µM | SF-295 76.9 µM | SNB-75 > 100 µM | HOP-92 28.1 µM | RXF 393 39.2 µM | U-251 88.3 µM | NCI-H226 71.4 µM | M14 43.3 µM | DLD-1 37.4 µM | NCI-H23 35.1 µM | OVCAR-5 > 100 µM | MOLT-4 28.1 µM | SW-620 38.5 µM

FC(F)(F)c1nc(Br)[nH]c1C(F)(F)F
inactive: SNB-19 > 100 µM | SK-MEL-28 > 100 µM | SF-295 > 100 µM | SNB-75 > 100 µM | HOP-92 27.8 µM | RXF 393 73.5 µM | U-251 67.5 µM | NCI-H226 51.9 µM | M14 > 100 µM | DLD-1 > 100 µM | NCI-H23 86.7 µM | OVCAR-5 > 100 µM | MOLT-4 > 100 µM | SW-620 > 100 µM

C=C1C(=O)OC2/C=C(\C)C(O)/C=C\C(C)(O)CC(OC(=O)/C(C)=C/C)C12 (stereo unspecified)
inactive: SNB-19 > 39.6 µM | SK-MEL-28 18.3 µM | SF-295 > 100 µM | SNB-75 > 100 µM | HOP-92 29.2 µM | RXF 393 18 µM | U-251 > 67.8 µM | NCI-H226 > 100 µM | M14 17.3 µM | DLD-1 13.2 µM | NCI-H23 39.8 µM | OVCAR-5 > 100 µM | MOLT-4 4.29 µM | SW-620 17.3 µM

COc1ccccc1OCc1nnc(SCC(=O)O)n1-c1ccccc1
inactive: SK-MEL-28 > 100 µM | SF-295 > 100 µM | SNB-75 > 100 µM | HOP-92 > 100 µM | U-251 > 100 µM | NCI-H226 > 100 µM | M14 > 100 µM | DLD-1 > 100 µM | NCI-H23 > 100 µM | OVCAR-5 > 100 µM | MOLT-4 > 100 µM

CC(=O)O[C@H]1CC[C@@]2(C)C(=CC[C@@H]3C2CC[C@]2(C)Nc4oncc4CC32)C1 (stereo partly specified)
inactive: SK-MEL-28 37.2 µM | SF-295 32.6 µM | SNB-75 24.2 µM | RXF 393 38.8 µM | U-251 37.4 µM | NCI-H226 15 µM | M14 31.8 µM | DLD-1 46 µM | NCI-H23 44 µM | OVCAR-5 > 100 µM | MOLT-4 10.7 µM | SW-620 43.3 µM

O=C1c2ccc3c4ccccc4n(Cc4ccccc4)c3c2C(=O)N1c1ccccc1
inactive: SNB-19 20 µM | SK-MEL-28 17 µM | SF-295 14.7 µM | SNB-75 13.8 µM | HOP-92 11.4 µM | RXF 393 12.7 µM | U-251 15.8 µM | NCI-H226 12.8 µM | M14 14.8 µM | DLD-1 17 µM | NCI-H23 12.9 µM | OVCAR-5 17.6 µM | MOLT-4 3.05 µM | SW-620 5.98 µM

NC(=O)c1ccccc1NC(=O)C(=O)Cc1nc2ccccc2nc1O
inactive: SNB-19 > 100 µM | SK-MEL-28 > 100 µM | SF-295 > 100 µM | SNB-75 60.8 µM | HOP-92 98.6 µM | RXF 393 > 100 µM | U-251 > 100 µM | M14 > 100 µM | DLD-1 > 100 µM | NCI-H23 > 100 µM | OVCAR-5 96.2 µM | MOLT-4 > 100 µM | SW-620 > 100 µM

CCOC(=O)CC(NCc1ccc(/N=C/c2nc3ccc(C(F)(F)F)cc3nc2-c2ccccc2)cc1)C(=O)OCC (stereo unspecified)
inactive: SNB-19 27.9 µM | SK-MEL-28 > 100 µM | SF-295 27.2 µM | SNB-75 12.1 µM | HOP-92 > 100 µM | RXF 393 15.2 µM | U-251 21.8 µM | NCI-H226 > 100 µM | M14 > 80.7 µM | DLD-1 > 100 µM | NCI-H23 > 57.3 µM | OVCAR-5 > 100 µM | MOLT-4 > 100 µM | SW-620 > 100 µM

O=[N+]([O-])c1ccc(-c2csc(=[N+]3CCCCC3)s2)cc1
inactive: SNB-19 4.88 µM | SK-MEL-28 36.5 µM | SF-295 2.71 µM | SNB-75 3.61 µM | HOP-92 26.1 µM | RXF 393 > 69.2 µM | U-251 2.54 µM | M14 36.1 µM | DLD-1 18.3 µM | NCI-H23 4.41 µM | OVCAR-5 9.75 µM | MOLT-4 5.38 µM | SW-620 13.2 µM

O=C(O)/C(=C/C=C/c1ccccc1)c1csc(-c2nc(/C(=C\C=C\c3ccccc3)C(=O)O)cs2)n1
inactive: SNB-19 11.5 µM | SK-MEL-28 33 µM | SF-295 31.6 µM | SNB-75 28.1 µM | HOP-92 19.6 µM | RXF 393 25.2 µM | U-251 38.5 µM | M14 22.9 µM | DLD-1 12.6 µM | NCI-H23 > 10 µM | OVCAR-5 > 100 µM | MOLT-4 1.69 µM | SW-620 39.4 µM

CCCCCN(CCCCC)C(=O)[C@H](CCC(=O)OCc1ccccc1)NC(=O)c1cc2ccccc2[nH]1
inactive: SNB-19 > 100 µM | SK-MEL-28 > 100 µM | SF-295 > 100 µM | SNB-75 > 100 µM | HOP-92 > 100 µM | RXF 393 > 100 µM | U-251 > 100 µM | NCI-H226 > 100 µM | M14 > 100 µM | DLD-1 > 100 µM | NCI-H23 > 100 µM | OVCAR-5 > 100 µM | MOLT-4 > 100 µM | SW-620 > 100 µM

O=C(N/N=C(/CCN1CCCC1)CC(c1ccccc1)c1c(O)c2ccccc2oc1=O)c1ccncc1 (stereo unspecified)
inactive: SNB-19 > 100 µM | SF-295 > 100 µM | SNB-75 > 100 µM | HOP-92 35 µM | RXF 393 > 100 µM | U-251 > 100 µM | NCI-H226 > 100 µM | M14 94.6 µM | DLD-1 > 100 µM | NCI-H23 > 100 µM | OVCAR-5 > 100 µM | SW-620 41.2 µM

COC(=O)C(C(=O)C(=O)Nc1cccc([N+](=O)[O-])c1)c1nc2ccc([N+](=O)[O-])cc2nc1O (stereo unspecified)
inactive: SNB-19 > 100 µM | SK-MEL-28 > 100 µM | SF-295 > 100 µM | SNB-75 70.6 µM | RXF 393 > 100 µM | U-251 > 100 µM | NCI-H226 > 100 µM | M14 > 100 µM | DLD-1 > 100 µM | NCI-H23 > 100 µM | OVCAR-5 > 100 µM | MOLT-4 > 100 µM | SW-620 > 100 µM

O=C(Nc1ccc(C(F)(F)F)cc1[N+](=O)[O-])C(=O)C1NC(=S)NC1=O (stereo unspecified)
inactive: SNB-19 > 100 µM | SK-MEL-28 > 100 µM | SF-295 > 100 µM | SNB-75 26.6 µM | HOP-92 43.7 µM | RXF 393 > 100 µM | U-251 > 100 µM | NCI-H226 11 µM | M14 > 100 µM | DLD-1 > 100 µM | NCI-H23 > 100 µM | OVCAR-5 > 100 µM | MOLT-4 > 100 µM | SW-620 > 100 µM

C/C(COc1ccccc1)=N\NC(N)=S
inactive: SK-MEL-28 > 100 µM | SF-295 > 100 µM | SNB-75 > 100 µM | HOP-92 > 100 µM | RXF 393 > 100 µM | U-251 > 100 µM | NCI-H226 > 100 µM | M14 > 100 µM | DLD-1 > 100 µM | NCI-H23 > 100 µM | OVCAR-5 > 100 µM | MOLT-4 > 100 µM | SW-620 > 100 µM

C=CCCCCCCCC(O)C1C[C@H](O)C(CCCCC)O1 (stereo partly specified)
inactive: SK-MEL-28 17.9 µM | SF-295 17.6 µM | SNB-75 15.2 µM | HOP-92 15.7 µM | RXF 393 17.1 µM | U-251 16 µM | NCI-H226 13.4 µM | M14 17.7 µM | DLD-1 17.3 µM | NCI-H23 16.9 µM | MOLT-4 17.7 µM | SW-620 21.1 µM

COc1cc([C@@H]2OCC3C(c4ccc5c(c4)OCO5)OCC32)cc(OC)c1OC (stereo partly specified)
inactive: SNB-19 47.8 µM | SK-MEL-28 > 100 µM | SF-295 > 100 µM | SNB-75 4.33 µM | HOP-92 8.97 µM | RXF 393 > 100 µM | U-251 > 100 µM | NCI-H226 41.3 µM | M14 > 100 µM | DLD-1 > 100 µM | NCI-H23 43.4 µM | OVCAR-5 > 100 µM | MOLT-4 45.5 µM | SW-620 > 100 µM

C[N+](C)(C)CC(=O)N/N=C(\C(=O)NC1=C(Cl)C(=O)c2ccccc2C1=O)C(C#N)c1csc(-c2ccc([N+](=O)[O-])cc2)n1 (stereo unspecified)
inactive: SNB-19 > 100 µM | SK-MEL-28 > 100 µM | SF-295 > 100 µM | SNB-75 > 100 µM | HOP-92 > 100 µM | RXF 393 > 100 µM | U-251 > 100 µM | NCI-H226 > 100 µM | M14 > 100 µM | DLD-1 > 100 µM | NCI-H23 > 100 µM | OVCAR-5 > 100 µM | MOLT-4 > 100 µM | SW-620 > 100 µM
